Results from ChEMBL document CHEMBL1158580, “Novel 1,3,5-triphenyl-2-pyrazolines as anti-infective agents” (2010).
In brackets after ≈: the same amount, converted by molar mass.

How the values were obtained:
[1] = test system: Mycobacterium tuberculosis; test: Antimycobacterial activity against Mycobacterium tuberculosis H37Rv assessed as reduction in relative light units at 50 ug/ml after 72 hrs by luciferase reporter phage assay; type: functional; set-up: scale not given: the % may be the effect or the level left
[2] = test system: Mycobacterium tuberculosis; test: Antimycobacterial activity against Mycobacterium tuberculosis H37Rv assessed as reduction in relative light units at 100 ug/ml after 72 hrs by luciferase reporter phage assay; type: functional; set-up: scale not given: the % may be the effect or the level left
Escherichia coli = test: Antibacterial activity against Escherichia coli NCIM 2931 by microdilution method; type: functional
Proteus vulgaris = test: Antibacterial activity against Proteus vulgaris NCIM 2813 by microdilution method; type: functional
Klebsiella aerogenes = test: Antibacterial activity against Enterobacter aerogenes NCIM 5139 by microdilution method; type: functional
Staphylococcus aureus = test: Antibacterial activity against Staphylococcus aureus NCIM 5021 by microdilution method; type: functional
Salmonella enterica = test: Antibacterial activity against Salmonella typhi NCIM 2501 by microdilution method; type: functional, Salmonella enterica subsp. enterica serovar Typhi
Bacillus subtilis = test: Antibacterial activity against Bacillus subtilis NCIM 2718 by microdilution method; type: functional
Fusarium proliferatum = test: Antifungal activity against Fusarium proliferatum NCIM 1105 assessed as fungal growth inhibition at 2 mg/ml by microdilution method; type: functional
Candida tropicalis = test: Antifungal activity against Candida tropicalis NCIM 3556 assessed as fungal growth inhibition at 2 mg/ml by microdilution method; type: functional
Aspergillus flavus = test: Antifungal activity against Aspergillus flavus NCIM 594 assessed as fungal growth inhibition at 2 mg/ml by microdilution method; type: functional
Aspergillus niger = test: Antifungal activity against Aspergillus niger NCIM 596 assessed as fungal growth inhibition at 2 mg/ml by microdilution method; type: functional

| SMILES | Activity [1] [%] | Activity [2] [%] | MIC (Escherichia coli) [µM] | MIC (Proteus vulgaris) [µM] | MIC (Klebsiella aerogenes) [µM] | MIC (Staphylococcus aureus) [µM] | MIC (Salmonella enterica) [µM] | MIC (Bacillus subtilis) [µM] | inhibition at 2000 µg/mL (Fusarium proliferatum) [%] | inhibition at 2000 µg/mL (Candida tropicalis) [%] | inhibition at 2000 µg/mL (Aspergillus flavus) [%] | inhibition at 2000 µg/mL (Aspergillus niger) [%] |
| --- | --- | --- | --- | --- | --- | --- | --- | --- | --- | --- | --- | --- |
| CSc1ccc(C2CC(c3ccccc3)=NN2c2ccccc2)cc1 (configuration not stated) | 0 | 17.65 | 45 (≈ 15.5 µg/mL) | 726 (≈ 250 µg/mL) | 363 (≈ 125 µg/mL) | 726 (≈ 250 µg/mL) | 0.726 (≈ 0.25 µg/mL) | 363 (≈ 125 µg/mL) | 94.1 | 73.1 | 30.5 | 93.5 |
| CSc1ccc(C2CC(c3ccc(Cl)cc3)=NN2c2ccccc2)cc1 (configuration not stated) | 0 | 17.43 | 82 (≈ 31.1 µg/mL) | 660 (≈ 250 µg/mL) | 330 (≈ 125 µg/mL) | 660 (≈ 250 µg/mL) | 0.33 (≈ 0.125 µg/mL) | 330 (≈ 125 µg/mL) | 72.9 | 94.4 | 13.1 | 93 |
| CS(=O)(=O)c1ccc(C2CC(c3ccccc3)=NN2c2ccccc2)cc1 (configuration not stated) | 1.7 | 50.71 | 166 (≈ 62.5 µg/mL) | 332 (≈ 125 µg/mL) | 332 (≈ 125 µg/mL) | 664 (≈ 250 µg/mL) | 0.332 (≈ 0.125 µg/mL) | 332 (≈ 125 µg/mL) | 97.6 | 30.6 | 65.8 | 47.2 |
| CS(=O)(=O)c1ccc(C2CC(c3ccc(Cl)cc3)=NN2c2ccccc2)cc1 (configuration not stated) | 0.76 | 15.46 | 152 (≈ 62.5 µg/mL) | 304 (≈ 125 µg/mL) | 304 (≈ 125 µg/mL) | 608 (≈ 250 µg/mL) | 0.304 (≈ 0.125 µg/mL) | 304 (≈ 125 µg/mL) | 88.3 | 95.6 | 88.4 | 97.5 |
| CSc1ccc(C2CC(c3cccc([N+](=O)[O-])c3)=NN2c2ccccc2)cc1 (configuration not stated) | 0 | 5.7 | 160 (≈ 62.3 µg/mL) | 321 (≈ 125 µg/mL) | 321 (≈ 125 µg/mL) | 642 (≈ 250 µg/mL) | 0.321 (≈ 0.125 µg/mL) | 321 (≈ 125 µg/mL) | 56.9 | 45.9 | 19 | 65.2 |
| COc1ccc(C2=NN(c3ccccc3)C(c3ccc(SC)cc3)C2)cc1OC (configuration not stated) | 32.66 | 30.3 | 155 (≈ 62.7 µg/mL) | 309 (≈ 125 µg/mL) | 155 (≈ 62.7 µg/mL) | 618 (≈ 250 µg/mL) | 0.309 (≈ 0.125 µg/mL) | 309 (≈ 125 µg/mL) | 93.2 | 9.12 | 63.8 | 9.65 |
| CSc1ccc(C2CC(c3cccc4c3OCO4)=NN2c2ccccc2)cc1 (configuration not stated) | 10.59 | 27.81 | 80 (≈ 31.1 µg/mL) | 322 (≈ 125 µg/mL) | 322 (≈ 125 µg/mL) | 644 (≈ 250 µg/mL) | 0.322 (≈ 0.125 µg/mL) | 322 (≈ 125 µg/mL) | 81.3 | 17.1 | 31.2 | 71.4 |
| CSc1ccc(C2CC(c3ccc(C)cc3)=NN2c2ccccc2)cc1 (configuration not stated) | 0 | 19.26 | 174 (≈ 62.4 µg/mL) | 349 (≈ 125 µg/mL) | 349 (≈ 125 µg/mL) | 697 (≈ 250 µg/mL) | 0.349 (≈ 0.125 µg/mL) | 349 (≈ 125 µg/mL) | 83.8 | 95.3 | 38.6 | 93 |
| CSc1ccc(C2CC(c3cccc(Br)c3)=NN2c2ccccc2)cc1 (configuration not stated) | 8.55 | 20.17 | 295 (≈ 125 µg/mL) | 295 (≈ 125 µg/mL) | 295 (≈ 125 µg/mL) | 591 (≈ 250 µg/mL) | 0.295 (≈ 0.125 µg/mL) | 295 (≈ 125 µg/mL) | 90.1 | 65.1 | 91.4 | 64.6 |
| CCOc1ccc(C2=NN(c3ccccc3)C(c3ccc(SC)cc3)C2)cc1 (configuration not stated) | 36.44 | 48.35 | 161 (≈ 62.6 µg/mL) | 322 (≈ 125 µg/mL) | 322 (≈ 125 µg/mL) | 643 (≈ 250 µg/mL) | 0.322 (≈ 0.125 µg/mL) | 322 (≈ 125 µg/mL) | 94.3 | 95.4 | 38.2 | 85.3 |
| CSc1ccc(C2CC(c3ccc(F)cc3)=NN2c2ccccc2)cc1 (configuration not stated) | 0 | 4.75 | 22 (≈ 7.97 µg/mL) | 345 (≈ 125 µg/mL) | 345 (≈ 125 µg/mL) | 690 (≈ 250 µg/mL) | 0.69 (≈ 0.25 µg/mL) | 172 (≈ 62.3 µg/mL) | 98.7 | 97.4 | 94.8 | 97.3 |
| COc1ccc(C2=NN(c3ccccc3)C(c3ccc(SC)cc3)C2)cc1 (configuration not stated) | 0 | 24.87 | 83 (≈ 31.1 µg/mL) | 334 (≈ 125 µg/mL) | 334 (≈ 125 µg/mL) | 668 (≈ 250 µg/mL) | 0.334 (≈ 0.125 µg/mL) | 334 (≈ 125 µg/mL) | 65.9 | 92.9 | 48.4 | 81.1 |
| COc1cccc(C2=NN(c3ccccc3)C(c3ccc(SC)cc3)C2)c1 (configuration not stated) | 7.45 | 26.85 | 167 (≈ 62.5 µg/mL) | 334 (≈ 125 µg/mL) | 334 (≈ 125 µg/mL) | 668 (≈ 250 µg/mL) | 0.334 (≈ 0.125 µg/mL) | 334 (≈ 125 µg/mL) | 96.1 | 98.7 | 51.5 | 90.1 |
| CSc1ccc(C2CC(c3ccc(Br)cc3)=NN2c2ccccc2)cc1 (configuration not stated) | 0 | 18.55 | 148 (≈ 62.7 µg/mL) | 295 (≈ 125 µg/mL) | 295 (≈ 125 µg/mL) | 591 (≈ 250 µg/mL) | 0.295 (≈ 0.125 µg/mL) | 295 (≈ 125 µg/mL) | 34.3 | 88.1 | 28.2 | 88.5 |
| CSc1ccc(C2CC(c3cccc(N)c3)=NN2c2ccccc2)cc1 (configuration not stated) | 0 | 13.79 | 173 (≈ 62.2 µg/mL) | 347 (≈ 125 µg/mL) | 347 (≈ 125 µg/mL) | 694 (≈ 249 µg/mL) | 0.347 (≈ 0.125 µg/mL) | 347 (≈ 125 µg/mL) | 93.6 | 86.1 | 25 | 84.4 |
| CSc1ccc(C2CC(c3ccccc3Cl)=NN2c2ccccc2)cc1 (configuration not stated) | 0 | 0 | 165 (≈ 62.5 µg/mL) | 330 (≈ 125 µg/mL) | 165 (≈ 62.5 µg/mL) | 330 (≈ 125 µg/mL) | 0.33 (≈ 0.125 µg/mL) | 330 (≈ 125 µg/mL) | 93.6 | 91 | 88.2 | 98.3 |
